In PMC5461114, “A bioactive peptide amidating enzyme is required for ciliogenesis” (eLife, 2017):

Assays:
CrPAM (PHM activity) = target: T1, CrPAM (PHM activity) (Chlamydomonas reinhardtii, UniProt A0A0S2C767); assay: PHM activity assay in cell lysate; assay type: biochemical; settings: mechanism-based PHM inhibitor; PBA added to lysate; vehicle ethanol
T1 construct: gene PAM; native full-length bifunctional membrane PAM (110 kDa) in detergent cell lysate; PHM domain activity measured
T1 sequence (A0A0S2C767 22-926): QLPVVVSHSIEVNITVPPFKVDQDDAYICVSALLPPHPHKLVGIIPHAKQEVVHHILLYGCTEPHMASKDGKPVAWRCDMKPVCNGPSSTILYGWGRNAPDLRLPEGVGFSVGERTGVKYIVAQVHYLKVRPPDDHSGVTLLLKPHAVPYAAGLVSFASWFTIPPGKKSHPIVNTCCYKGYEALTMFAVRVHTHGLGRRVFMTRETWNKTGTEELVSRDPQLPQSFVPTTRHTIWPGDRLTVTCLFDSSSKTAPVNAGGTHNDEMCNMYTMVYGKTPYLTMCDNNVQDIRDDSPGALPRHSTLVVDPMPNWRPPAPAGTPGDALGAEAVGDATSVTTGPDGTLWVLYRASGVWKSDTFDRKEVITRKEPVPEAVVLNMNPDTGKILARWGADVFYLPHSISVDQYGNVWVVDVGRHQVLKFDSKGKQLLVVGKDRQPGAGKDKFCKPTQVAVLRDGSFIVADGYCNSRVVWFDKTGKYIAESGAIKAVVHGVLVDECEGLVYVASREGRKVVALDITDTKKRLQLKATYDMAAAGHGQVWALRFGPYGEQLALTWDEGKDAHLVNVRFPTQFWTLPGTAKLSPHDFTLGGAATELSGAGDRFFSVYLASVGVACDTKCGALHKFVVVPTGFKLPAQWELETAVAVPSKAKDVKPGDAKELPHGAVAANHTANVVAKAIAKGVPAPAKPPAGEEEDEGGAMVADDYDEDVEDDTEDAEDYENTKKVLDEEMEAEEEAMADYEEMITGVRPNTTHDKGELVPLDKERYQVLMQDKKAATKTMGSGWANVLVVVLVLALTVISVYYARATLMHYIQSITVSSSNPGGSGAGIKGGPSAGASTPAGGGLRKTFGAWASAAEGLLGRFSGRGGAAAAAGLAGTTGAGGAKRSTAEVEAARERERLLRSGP

rat PAM (PHM activity) = target: T2, rat PAM (PHM activity) (Rattus norvegicus, UniProt P14925); assay: PHM activity assay in cell lysate; assay type: biochemical; settings: mechanism-based PHM inhibitor; PBA added to lysate; vehicle ethanol
T2 construct: rat PAM expressed in mouse corticotropes, cell lysate; PHM domain activity measured
T2 sequence (P14925 36-976): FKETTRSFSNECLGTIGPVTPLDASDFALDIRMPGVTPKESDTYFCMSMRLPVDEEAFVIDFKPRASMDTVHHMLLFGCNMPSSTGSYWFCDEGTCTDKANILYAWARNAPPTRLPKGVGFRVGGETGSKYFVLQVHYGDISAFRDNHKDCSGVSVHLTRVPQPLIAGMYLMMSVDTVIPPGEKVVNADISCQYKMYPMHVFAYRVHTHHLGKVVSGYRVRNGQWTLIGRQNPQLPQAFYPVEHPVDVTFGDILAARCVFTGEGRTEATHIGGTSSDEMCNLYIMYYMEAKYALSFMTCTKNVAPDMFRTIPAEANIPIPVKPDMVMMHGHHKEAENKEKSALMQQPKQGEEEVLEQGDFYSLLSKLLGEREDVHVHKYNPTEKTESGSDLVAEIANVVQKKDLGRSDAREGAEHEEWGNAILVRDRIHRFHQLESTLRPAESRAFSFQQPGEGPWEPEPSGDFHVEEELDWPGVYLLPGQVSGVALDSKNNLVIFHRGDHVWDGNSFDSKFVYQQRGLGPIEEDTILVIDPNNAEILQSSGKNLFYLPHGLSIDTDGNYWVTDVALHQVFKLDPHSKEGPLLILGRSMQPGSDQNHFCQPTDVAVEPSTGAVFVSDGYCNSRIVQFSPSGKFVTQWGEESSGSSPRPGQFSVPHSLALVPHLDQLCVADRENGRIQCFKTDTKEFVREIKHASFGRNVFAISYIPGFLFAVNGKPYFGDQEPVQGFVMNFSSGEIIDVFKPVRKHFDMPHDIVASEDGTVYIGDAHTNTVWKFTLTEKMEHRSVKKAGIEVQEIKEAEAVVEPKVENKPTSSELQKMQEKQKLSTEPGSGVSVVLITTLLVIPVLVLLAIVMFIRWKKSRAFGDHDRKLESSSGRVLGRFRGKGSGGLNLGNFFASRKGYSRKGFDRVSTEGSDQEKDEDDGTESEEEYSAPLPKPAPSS

SMILES: O=C(O)CC=Cc1ccccc1 [4-phenyl-3-butenoic acid]
- PHM specific activity (CrPAM (PHM activity)): did inhibit both mammalian and C. reinhardtii PHM activities
- PHM specific activity (rat PAM (PHM activity)): PHM specific activity was greatly reduced in both lysates in the presence of PBA
